Source: US5229419A, “Chemotherapeutically active acetogenins” (Purdue Research Foundation, priority 1992, dated 1993)
Values after ≈ are worked out from the molar mass of the structure shown.

Columns and labels:
SW620 = experiment: NCI in vitro cytotoxicity, colon cancer; format: cell-based; conditions: Homo sapiens, SW-620
OVCAR-4 = experiment: NCI in vitro cytotoxicity, ovarian cancer; format: cell-based; conditions: Homo sapiens
SK-MEL2 = experiment: NCI in vitro cytotoxicity, melanoma; format: cell-based; conditions: Homo sapiens, SK-MEL-2
[1] = tested on: brine shrimp (Artemia salina Leach); experiment: whole plant or invertebrate; format: in vivo; conditions: 24 hrs, read-out: BST LC50
Method: The extracts, fractions, and isolated compounds were routinely evaluated for lethality to brine shrimp larvae (BST). The LC50 of brine shrimp (Artemia salina Leach) was determined by substantially the same method described by Meyer et al. [Planta Med., 45: 31-34 (1982)]. The test sample was dissolved in solvent and added to 2-dram vials in an amount to provide 1000, 100, 10, 1, etc. p.p.m. of material in the final brine preparation, assuming complete miscibility in the brine. The vials were dried in vacuo, and artificial sea water, prepared from a commercial salt mixture, was added. Ten brine shrimp larva (nauplii), 48-72 hrs. old, were introduced to the vial, and the volume was made up to 5 ml. with the sea water. After 24 hrs., the percent mortality was computed. Subsequently, LC50 values and 95% confidence limits were calculated by a Finney probit analysis to permit comparison of potencies of extracts and fractions.
Anticancer activity is a potential use even for the crude extract. The bioassay results for the lethality of brine shrimp (BST), the inhibition of crown gall tumors on potato discs (PD), the reversal in morphology of db-cAMP induced AC glioma cells from that of mature, differentiated astrocytes to that of immature AC glioma cells (mouse brain cells) (9ASK), the dose that inhibits cell growth to one-half that of untreated poorly differentiated human epidermic carcinoma (9KB), the dose that inhibits cell growth to one-half that of a methylcholanthrene-induced lymphoid neoplasm in a DBA/2 mouse (9PS), and the percent displacement in a protein kinase C test for initial extract fractions are shown in Table 1. Obviously, the bioactivity is concentrated in F005.

RPMI-7951 = experiment: NCI in vitro cytotoxicity, melanoma; format: cell-based; conditions: Homo sapiens
EKV-X = experiment: NCI in vitro cytotoxicity, non-small cell lung cancer; format: cell-based; conditions: Homo sapiens, EKVX
SNB-19 = experiment: NCI in vitro cytotoxicity, CNS cancer; format: cell-based; conditions: Homo sapiens
DLD-1 = experiment: NCI in vitro cytotoxicity, colon cancer; format: cell-based; conditions: Homo sapiens
P388 = experiment: NCI in vitro cytotoxicity, leukemia; format: cell-based; conditions: Mus musculus
OVCAR-3 = experiment: NCI in vitro cytotoxicity, ovarian cancer; format: cell-based; conditions: Homo sapiens
TE-671 = experiment: NCI in vitro cytotoxicity, CNS cancer; format: cell-based; conditions: Homo sapiens
[2] = tested on: human tumor cell line panel; experiment: NCI human tumor cell line panel, overall; format: cell-based; conditions: Table 6 summary
H524 = experiment: NCI in vitro cytotoxicity, small cell lung cancer; format: cell-based; conditions: Homo sapiens
HCC-2998 = experiment: NCI in vitro cytotoxicity, colon cancer; format: cell-based; conditions: Homo sapiens
protein kinase C = protein kinase C displacement test; format: binding; conditions: 10 μM
protein tyrosine kinase = protein tyrosine kinase test; format: biochemical
H322 = experiment: NCI in vitro cytotoxicity, non-small cell lung cancer; format: cell-based; conditions: Homo sapiens
A498 = experiment: NCI in vitro cytotoxicity, renal cancer; format: cell-based; conditions: Homo sapiens
U251 = experiment: NCI in vitro cytotoxicity, CNS cancer; format: cell-based; conditions: Homo sapiens, U-251
H460 = experiment: NCI in vitro cytotoxicity, non-small cell lung cancer; format: cell-based; conditions: Homo sapiens
HOLT-4 = experiment: NCI in vitro cytotoxicity, leukemia; format: cell-based; conditions: Homo sapiens
A704 = experiment: NCI in vitro cytotoxicity, renal cancer; format: cell-based; conditions: Homo sapiens
LOX = experiment: NCI in vitro cytotoxicity, melanoma; format: cell-based; conditions: Homo sapiens
Source text: Isolated pure compounds were sent to the National Institute of Health, National Cancer Institute, Bethesda, Md., for testing in human cancer cell line panels including leukemia, non-small cell lung cancer, small cell lung cancer, CNS cancer, melanoma, ovarian cancer and renal cancer.
To test further the selective specificity of antitumor activities, bullatacin was sent to the NIH, NCI at Bethesda, Md., for their human tumor cell line panel tests including leukemia, non-small cell lung cancer, small cell lung cancer, colon cancer, breast cancer, CNS cancer melanoma, ovarian cancer, and renal cancer.

K562 = experiment: NCI in vitro cytotoxicity, leukemia; format: cell-based; conditions: Homo sapiens
LOVO = experiment: NCI in vitro cytotoxicity, colon cancer; format: cell-based; conditions: Homo sapiens
H125 = experiment: NCI in vitro cytotoxicity, non-small cell lung cancer; format: cell-based; conditions: Homo sapiens

Question: How did the IC50 (SW620) turn out when CCCCCCCCCCC(O)C1CCC(C2CCC(C(O)CCCCCCCCCCC(O)CC3=CC(C)OC3=O)O2)O1 (stereo not shown) [Bullatacin] was run?
Answer: The IC50 was 0.00564 µg/mL (≈ 0.00905 µM).

Question: And the IC90 (SW620)?
Answer: Its IC90 is 5.66 µg/mL (≈ 9.09 µM).

Question: And the IC50 (OVCAR-4)?
Answer: Its IC50 is > 0.0924 µg/mL.

Question: What about the IC90 (OVCAR-4) of the same compound?
Answer: The IC90 was > 0.0924 µg/mL.

Question: And the IC90 (SK-MEL2)?
Answer: The IC90 was 8.64 µg/mL (≈ 13.9 µM).

Question: And the LC50 [1]?
Answer: The LC50 was 0.00159 µg/mL (≈ 0.00255 µM).

Question: What about the IC50 (RPMI-7951) of the same compound?
Answer: The IC50 was 2.73 µg/mL (≈ 4.38 µM).

Question: And the IC90 (RPMI-7951)?
Answer: The IC90 was 7.71 µg/mL (≈ 12.4 µM).

Question: And the IC50 (EKV-X)?
Answer: Its IC50 is 0.000115 µg/mL (≈ 0.000185 µM).

Question: What about the IC90 (EKV-X) of the same compound?
Answer: Its IC90 is > 0.0926 µg/mL.

Question: What about the IC50 (SNB-19) of the same compound?
Answer: Its IC50 is > 0.926 µg/mL.

Question: What about the IC90 (SNB-19) of the same compound?
Answer: The IC90 was > 0.926 µg/mL.

Question: What about the IC50 (DLD-1) of the same compound?
Answer: The IC50 was 2.76 µg/mL (≈ 4.43 µM).

Question: What about the IC90 (DLD-1) of the same compound?
Answer: The IC90 was 8.62 µg/mL (≈ 13.8 µM).

Question: And the IC50 (P388)?
Answer: The IC50 was > 0.0924 µg/mL.

Question: What about the IC90 (P388) of the same compound?
Answer: Its IC90 is > 0.0924 µg/mL.

Question: What about the IC50 (OVCAR-3) of the same compound?
Answer: The IC50 was > 0.0924 µg/mL.

Question: And the IC90 (OVCAR-3)?
Answer: Its IC90 is > 0.0924 µg/mL.

Question: And the IC50 (TE-671)?
Answer: Its IC50 is 0.0256 ng/mL (≈ 4.11e-05 µM).

Question: What about the IC90 (TE-671) of the same compound?
Answer: Its IC90 is 0.00274 µg/mL (≈ 0.0044 µM).

Question: And the “tumor types most sensitive in panel” value [2]?
Answer: Its value is “best active for certain CNS cancers, non-small cell lung cancers, leukemias, and ovarian cancers”.

Question: What about the IC50 (H524) of the same compound?
Answer: Its IC50 is 2.69 µg/mL (≈ 4.32 µM).

Question: What about the IC90 (H524) of the same compound?
Answer: The IC90 was 7.54 µg/mL (≈ 12.1 µM).

Question: And the IC50 (HCC-2998)?
Answer: Its IC50 is 4.05 µg/mL (≈ 6.5 µM).

Question: And the “displacement in a protein kinase C test” value (protein kinase C)?
Answer: The value was 7%.

Question: And the “result in the protein tyrosine kinase test” value (protein tyrosine kinase)?
Answer: The value was “negative result”.

Question: And the IC50 (H322)?
Answer: Its IC50 is < 0.000926 µg/mL.

Question: And the IC90 (H322)?
Answer: Its IC90 is > 9.26 µg/mL.

Question: What about the IC50 (A498) of the same compound?
Answer: The IC50 was 0.0424 ng/mL (≈ 6.81e-05 µM).

Question: And the IC90 (A498)?
Answer: The IC90 was 0.00371 µg/mL (≈ 0.00596 µM).

Question: What about the IC50 (U251) of the same compound?
Answer: The IC50 was < 0.00924 ng/mL.

Question: And the IC90 (U251)?
Answer: Its IC90 is 0.0437 ng/mL (≈ 7.02e-05 µM).

Question: What about the IC50 (H460) of the same compound?
Answer: The IC50 was 0.0287 ng/mL (≈ 4.61e-05 µM).

Question: And the IC90 (H460)?
Answer: Its IC90 is 0.000185 µg/mL (≈ 0.000297 µM).

Question: And the IC50 (HOLT-4)?
Answer: The IC50 was 1.41 µg/mL (≈ 2.26 µM).

Question: What about the IC90 (HOLT-4) of the same compound?
Answer: The IC90 was 4.72 µg/mL (≈ 7.58 µM).

Question: And the IC50 (A704)?
Answer: The IC50 was 1.36 µg/mL (≈ 2.18 µM).

Question: And the IC90 (A704)?
Answer: The IC90 was 8 µg/mL (≈ 12.8 µM).

Question: What about the IC50 (LOX) of the same compound?
Answer: Its IC50 is < 0.000926 µg/mL.

Question: And the IC90 (LOX)?
Answer: The IC90 was 3.76 µg/mL (≈ 6.04 µM).

Question: What about the IC50 (K562) of the same compound?
Answer: Its IC50 is < 0.000926 µg/mL.

Question: What about the IC90 (K562) of the same compound?
Answer: Its IC90 is 4.5 µg/mL (≈ 7.22 µM).

Question: What about the IC50 (LOVO) of the same compound?
Answer: The IC50 was 0.000915 µg/mL (≈ 0.00147 µM).

Question: And the IC90 (LOVO)?
Answer: The IC90 was 4.69 µg/mL (≈ 7.53 µM).

Question: What about the IC50 (H125) of the same compound?
Answer: Its IC50 is 2.4 µg/mL (≈ 3.85 µM).

Question: What about the IC90 (H125) of the same compound?
Answer: The IC90 was > 9.26 µg/mL.
